Nine compounds from patent US6288261A, “Inhibitors of matrix metalloproteinases” (Abbott Laboratories, priority 1999, dated 2001) can be followed below.

In this test the target is T1, recombinant truncated stromelysin (human sequence) (Homo sapiens, UniProt P08254).
T1 construct: made in house; host or cells: E. coli
T1 sequence (P08254 100-273 limits assumed): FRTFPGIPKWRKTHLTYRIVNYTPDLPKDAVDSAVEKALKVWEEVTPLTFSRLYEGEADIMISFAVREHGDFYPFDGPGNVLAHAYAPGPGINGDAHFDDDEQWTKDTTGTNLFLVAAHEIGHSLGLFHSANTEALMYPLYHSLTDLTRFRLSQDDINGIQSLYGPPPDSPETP
Kind of test: Determination of Stromelysin Inhibition. It counts as biochemical. To be noted: recombinant truncated human stromelysin produced in E. coli. The method, then: Determination of Stromelysin Inhibition
The efficacy of the compounds of this invention as matrix metalloproteinase inhibitors was determined by measuring the inhibition of stromelysin. The inhibition of stromelysin by the compounds of this invention was determined as follows: recombinant truncated stromelysin (human sequence) produced in E. coli was prepared by expression and purification of the protein as described by Ye et al, Biochemistry, 1992, 31, 11231-11235. The IC50 values were determined as described in Steiman et al, Bioorganic and Medicinal Chemistry Letters, (1998), 8, 2087-2092 (footnote 13).
In general, IC50 refers to the concentration that gives 50% inhibition. For the compound `COc1ccc(-c2ccc(C(=O)CCCc3ccc4ccccc4c3C(=O)NO)cc2)cc1` [Example 11, N-hydroxy-2-[4-(4'-methoxy[1,1'-biphenyl]-4-yl)-4-oxobutyl]-1-naphthalenecarboxamide], the 50% inhibitory concentration (IC50) worked out at 1500 nM.
In the case of `COc1ccc(-c2ccc(S(=O)(=O)CCOc3ccc4ccccc4c3C(=O)NO)cc2)cc1` [Example 7, N-hydroxy-2-[2-[(4'-methoxy[1,1'-biphenyl]-4-vl)sulfonyl]ethoxy]-1-naphthalenecarboxamide] it was 460 nM; in that of `COc1ccc(-c2ccc(C(=O)CCc3ccc4ccccc4c3C(=O)NO)cc2)cc1` [Example 12, N-hydroxy-2-[3-(4'-methoxy[1,1'-biphenyl]-4-yl)-3-oxopropyl]-1-naphthalenecarboxamide], 450 nM.
In the case of `COc1ccc(-c2ccc(S(=O)(=O)CCCc3ccc4ccccc4c3C(=O)NO)cc2)cc1` [Example 10, N-hydroxy-2-[3-[(4'-methoxy[1,1'-biphenyl]-4-yl)sulfonyl]propyl]-1-naphthalenecarboxamide], the IC50 turned out to be 400 nM.
Under `O=C(NO)c1c(CNS(=O)(=O)c2ccc(-c3ccc(OC(F)(F)F)cc3)cc2)ccc2ccccc12` [Example 9] stands 690 nM.
Under `O=C(NO)c1c(CCOc2ccc(-c3ccc(Cl)cc3)cc2)ccc2ccccc12` [Example 1, 2-[2-[(4'-chloro[1,1'-biphenvyl]-4-vl)oxy]eyl]-N-hydroxy-1-naphthalenecarboxamide] stands 640 nM; under `O=C(NO)c1c(CCS(=O)(=O)c2ccc(-c3ccc(Cl)cc3)cc2)ccc2ccccc12` [Example 8, 2-[2-[(4'-chloro[1,1'-biphenyl]-4-yl)sulfonyl]ethyl]-N-hydroxy-1-naphthalenecarboxamide], 3700 nM; under `O=C(NO)c1c(OCCS(=O)(=O)c2ccc(-c3ccc(Cl)cc3)cc2)ccc2ccccc12` [Example 6, 2-[[2-(4'-chloro[1,1'-biphenyl]-4-yl)sulfonyl]ethoxy]-N-hydroxy-1-naphthalenecarboxamide], 670 nM.
In the case of `N#CCc1cccc(-c2ccc(S(=O)(=O)CCOc3ccc4ccccc4c3C(=O)NO)cc2)c1` [Example 13] it was 62 nM.
